{"source": "patent US9388126B2", "about": "“Sigma receptor ligands and methods of modulating cellular protein homeostasis using same” (Drexel University, priority 2012, dated 2016)", "format_in_all_cases": "cell-based, human", "key": {"[1]": {"system": "MDA-MB-468 (GFP-LC3) cells", "assay": "GFP-LC3 punctae (autophagosome formation) microscopy assay", "details": "drug concentrations up to 100 μM, 24 hours", "description": "The human GFP-LC3 expression plasmid, pEGFP-LC3 (a gift from Drs. Grazia Ambrosini and Gary K. Schwartz, MSKCC), was stably transfected into MDA-MB-468 and selected with 0.5 mg/ml G418 sulfate. Stable populations were generated and compared to parental MDA-MB-468 for Sigma1 expression and autophagic and growth inhibitory response to Sigma ligands. GFP-LC3 translocation (punctae formation) was assessed by microscopy in MDA-MB-468 (GFP-LC3) stable cell populations. For microscopy-based experiments, cells were seeded onto Lab-Tek II glass chamber slides (Nalge Nunc International). […] Images of GFP-LC3 punctae were acquired with a Zeiss Axioplan 2 Imaging widefield microscope using Axiovision LE software. Punctae were counted using the spot quantitation program in the Fluoro-Chem software package (Alpha Innotech) and confirmed in parallel by manual counting. Autophagosome formation in MDAMB-468 (GFP-LC3) cells was quantitated as the mean number of GFP-LC3 punctae per GFP positive cell.\nInitially, an established immunoblot-based assay to detect microtubule associated protein light chain 3 (LC3) lipidation was used to test for the activation of autophagy. […] Since transient transfections can produce spurious GFP-LC3 aggregates, stable GFP-LC3 transfected populations of MDA-MB-468 (GFP-LC3) were generated. […]"}, "[2]": {"system": "MCF-7, T47D, DU145, PC3, HepG2 and Panc1 cells", "assay": "LC3BII immunoblot in a range of tumor cell lines", "details": "10 μM, 24 hours", "description": "FIG. 36, comprising FIGS. 36A-36C, illustrates Sigma1 antagonist associated autophagy. FIG. 36A, comprises representative images of translocation of GFP-tagged LC3 (LC3-GFP) into autophagosomes in MDA-MB-468 (MDA468) breast adenocarcinoma cells. Only antagonist-treated MDA-MB-468 cells presented LC3-GFP translocation to autophagosomes: […]. […] The images are representative of at least 80 fields for each treatment condition. FIG. 36B is an image of an immunoblot illustrating the finding that formation of GFP-LC3II the formation of GFP-LC3 positive punctae, an indicator of autophagosome formation. Protein extracts from MDA-MB-468 cells stably transfected with and expressing GFP-LC3, treated for 24 hours with 10 μM of the indicated Sigma1 ligand. FIG. 36C comprises images of immunoblots illustrating that increased levels of the microtubule associated protein light chain 3BII isoform (LC3BII) is another broadly used indicator of activated autophagy. […] Legend: MCF-7 (breast adenocarcinoma), T47D (breast adenocarcinoma), DU145 (prostate adenocarcinoma), PC3 (prostate adenocarcinoma), HepG2 (hepatocellular carcinoma), and Panc1 (pancreatic adenocarcinoma)."}, "MDA-MB-468 cells": {"system": "MDA-MB-468 cells", "assay": "Cell size by flow cytometry (mean FSC-H, G1 phase)", "details": "10 μM, 24 hours", "description": "FIG. 11 is a graph illustrating decrease in MDAMB468 cell size associated with the Sigma1 antagonist treatment. MDA-MB-468 cells were treated for 24 hours with DMSO (control), 10 μM IPAG (antagonist), or 10 μM PRE084 (agonist). Cell size was quantitated by flow cytometry, using a Becton Dickinson FACS Calibur flow cytometer with Cell Quest software. The mean forward scatter height (FSC-H) of the G1-phase population was determined as a measure of relative cell size. Single cells were gated away from aggregated cells using an FL2-width versus FL-2 area dot plot. Mean FSC-H±S.E. was calculated from at least 4 independent determinations. For each FSC-H determination, FACS analysis was performed on 10,000 single cells. The mean FSC-H of DMSO (control) and PRE084 treated MDA-MB-468 measured 370±6 and 372±7, respectively, whereas the mean FSC-H of IPAG treated MDA-MB-468 cells was 323±4. ** P<0.01 for IPAG compared to DMSO and IPAG compared to PRE084.\nFIG. 31A is a differential interference contrast (DIC) image of MDA-MB-468 breast adenocarcinoma cells treated for ˜20 hours with DMSO (drug vehicle control), 10 μM IPAG (antagonist) or 10 μM PRE084 (agonist). A twenty-micron bar is shown in each image. Data are presented as mean±SEM. FIG. 31B is a graph illustrating the finding that IPAG diminished the mean cell size (FSC-H) of MDA-MB-468 breast tumor cells in a time-responsive manner. The mean FSC-H of 370±5 at to decreased to 323±4 after 24 hours of IPAG treatment and to 267±2 after 48 hours of treatment. Two-tailed t-tests were performed to determine statistical significance. For IPAG treatment compared to control (DMSO) and Sigma agonists (SKF and PRE084), P=0.0002 at d1 and P=0.00013 at d2. Data were generated from three to five independent determinations for each time-point. […] T-47D were treated for 24 h with 1 and 10 μM IPAG, and mean FSC-H was measured. […] For FIGS. 31B-31E, the mean FSC-H was determined for each cell cycle population (i.e., G1, S, G2/M), and data is shown for G1 phase cells. […]"}, "[3]": {"system": "T-47D breast adenocarcinoma cells", "assay": "Cell size by flow cytometry (mean FSC-H, G1 phase)", "details": "10 μM, 24 hours; control 412±5", "description": "FIG. 31A is a differential interference contrast (DIC) image of MDA-MB-468 breast adenocarcinoma cells treated for ˜20 hours with DMSO (drug vehicle control), 10 μM IPAG (antagonist) or 10 μM PRE084 (agonist). A twenty-micron bar is shown in each image. Data are presented as mean±SEM. FIG. 31B is a graph illustrating the finding that IPAG diminished the mean cell size (FSC-H) of MDA-MB-468 breast tumor cells in a time-responsive manner. The mean FSC-H of 370±5 at to decreased to 323±4 after 24 hours of IPAG treatment and to 267±2 after 48 hours of treatment. Two-tailed t-tests were performed to determine statistical significance. For IPAG treatment compared to control (DMSO) and Sigma agonists (SKF and PRE084), P=0.0002 at d1 and P=0.00013 at d2. Data were generated from three to five independent determinations for each time-point. Flow cytometry was used to measure mean cell size (mean FSC-H) of T-47D breast adenocarcinoma cells. FIG. 31C is a bar graph illustrating T-47D cells treated for 24 hours with 10 μM indicated Sigma ligand. IPAG and BD 1047 (Sigma1 antagonists) diminished cell size from a mean FSC-H of 412±5 for control (DMSO) cells versus 341±7 and 381±8 for IPAG and BD1047 treated cells, respectively. […] Data represent 5 independent determinations (*P<0.05, ***P<0.001). FIG. 31D is a bar graph illustrating how IPAG (antagonist) decreases cell size in a dose responsive manner. T-47D were treated for 24 h with 1 and 10 μM IPAG, and mean FSC-H was measured. FIG. 31E is a graph illustrating that T47D cell size decreases over time. T-47D cells were treated for a total of 48 hours with 10 μM of the indicated Sigma ligands. […] Neither Sigma1 agonist, (+)-SKF10047 and PRE084, altered cell size. […] Two-tailed t-tests were performed to determine statistical significance. For IPAG treatment compared to control (DMSO) and Sigma1 agonists (SKF and PRE084), P=0.0002 at d1 and P<0.0001 at d2. For FIGS. 31B-31E, the mean FSC-H was determined for each cell cycle population (i.e., G1, S, G2/M), and data is shown for G1 phase cells. S and G2/M phase cells responded similarly (data not shown)."}}}
{"smiles": "O=C(OCCN1CCOCC1)C1(c2ccccc2)CCCCC1", "note": "[PRE-084, 2-morpholin-4-ylethyl 1-phenylcyclohexane-1-carboxylate]", "values": [{"measurement": "GFP-LC3 punctae per cell", "setting": "[1]", "result": "no more than 6±2 punctae per cell"}, {"measurement": "LC3BII levels", "setting": "[2]", "result": "did not significantly alter basal autophagy"}, {"measurement": "mean FSC-H (relative cell size)", "setting": "MDA-MB-468 cells", "result": "372±7"}, {"measurement": "mean FSC-H (relative cell size)", "setting": "[3]", "result": "did not alter cell size"}]}
